The conditions of this data set: 101.33 kPa, Liquid, Vibrating tube method.

Molecules are shown by their SMILES. ± gives the expanded uncertainty stated by the source.

6 compounds from the NIST ThermoML archive (doi:10.1016/j.fluid.2009.11.030) can be followed below.

As to `CC(C)CO` [2-methyl-1-propanol], the mass density (as a rule, the mass of a sample divided by its volume) is recorded as 806.121 ± 0.14 kg/m3 (288.15 K); 798.409 ± 0.14 kg/m3 (298.15 K); 786.515 ± 0.15 kg/m3 (313.15 K); 774.113 ± 0.15 kg/m3 (328.15 K); 765.452 ± 0.15 kg/m3 (338.15 K); 756.435 ± 0.16 kg/m3 (348.15 K).
Take `CCCCO` [butan-1-ol]: the mass density by setting is: (288.15 K) 813.604 ± 0.11 kg/m3; (298.15 K) 805.984 ± 0.11 kg/m3; (313.15 K) 794.34 ± 0.12 kg/m3; (328.15 K) 782.323 ± 0.12 kg/m3; (338.15 K) 774.032 ± 0.13 kg/m3; (348.15 K) 765.48 ± 0.13 kg/m3.
Regarding `CCOC(=O)CC(=O)OCC` [diethyl 1,3-propanedioate], the mass density is, setting by setting: (288.15 K) 1060.33 ± 0.061 kg/m3; (298.15 K) 1049.6 ± 0.057 kg/m3; (313.15 K) 1033.5 ± 0.051 kg/m3; (328.15 K) 1017.34 ± 0.045 kg/m3; (338.15 K) 1006.5 ± 0.042 kg/m3; (348.15 K) 995.631 ± 0.041 kg/m3.
Take `CCOC(C)=O` [ethyl acetate]: the mass density (288.15 K) came out at 906.547 ± 0.11 kg/m3; the mass density (298.15 K) was determined as 894.381 ± 0.12 kg/m3; the mass density (313.15 K) is on record as 875.812 ± 0.12 kg/m3; the mass density (328.15 K) came to 856.813 ± 0.13 kg/m3; the mass density (338.15 K) is recorded as 843.858 ± 0.13 kg/m3; the mass density (348.15 K) was 830.622 ± 0.14 kg/m3.
With `CCCCCCC` [heptane], the mass density reads like this: (288.15 K) 688.254 ± 0.25 kg/m3; (298.15 K) 679.787 ± 0.25 kg/m3; (313.15 K) 666.893 ± 0.25 kg/m3; (328.15 K) 653.72 ± 0.26 kg/m3; (338.15 K) 644.767 ± 0.26 kg/m3; (348.15 K) 635.631 ± 0.26 kg/m3.
As to `CCCCCO` [pentan-1-ol], the mass density is, setting by setting: (288.15 K) 819.154 ± 0.14 kg/m3; (298.15 K) 811.8 ± 0.14 kg/m3; (313.15 K) 800.574 ± 0.14 kg/m3; (328.15 K) 789.007 ± 0.15 kg/m3; (338.15 K) 781.05 ± 0.15 kg/m3; (348.15 K) 772.873 ± 0.15 kg/m3.
